Test: recombinant barcode read abundance after kanamycin selection (control-corrected) (log10(CPM+1)); higher = more efficient recombination; sequences stand for … in AGTGCAGAGAAAATCGGCCAGTTTTCTCTGCCTGCAGTCCGCATGCCGT…AGATTTATGCAGCGGACTGCCTTTCTCCCAAAGTGATAAACCGGACAGTATCATGGACCGGTTTTCCCGGTAATCCGTATTTGCAAGGTTGGTTTCACT; site = the 11-nt target
Procedure: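 Pooled E. coli target-specificity screen for the IS621 bridge recombinase. Each library plasmid pairs an 11-nt target (CT core) with a bridge RNA whose target-binding loop (9-nt LTG + 4-nt RTG) is reprogrammed; the rest of the 177-nt WT IS621 bridge RNA scaffold is fixed. The plasmid is co-electroporated with a WT donor plasmid; recombinase is induced with 0.1 mM IPTG and recombinants are selected on kanamycin. Recombinant barcodes are sequenced, converted to CPM, averaged over two biological replicates and corrected by the unselected control CPM. Molecule = full bridge RNA written as DNA: LTG = specificity nt 1-9, RTG = reverse complement of specificity nt 8-11, in the WT scaffold.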
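Further: IS621 recombinase and bridge RNA in Escherichia coli cells.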

“AAGCTAACTTGGGTTCTAACCTGTTGCCT (site AAGCCAACTAG)” and “AAGCTAACTTGGGTTCTAACCTGTTGCCT (site AAGCGAACTAG)” are within 0.2 log units of each other in “recombinant barcode read abundance (log10)” value: 0.299 for the first, 0.248 for the second.

Compared with “AAGCTAACTTGGGTTCTAACCTGTTGCCT (site AAGCTAACTAG)”, “AAGGCCTCTTGGGTTCTAACCTGTTGCCA (site AAGGCCTCTAT)” is lower in “recombinant barcode read abundance (log10)” value: 1.77 for the first, 0.0333 for the second.

Compared with “AAGGCCTCTTGGGTTCTAACCTGTTGCCA (site AAGGCCTCTTG)”, “AAGGCCTCTTGGGTTCTAACCTGTTGCTT (site AAGACCTCTAA)” is lower in “recombinant barcode read abundance (log10)” value: 1.88 for the first, 0.775 for the second.

Compared with “AAGGCCTCTTGGGTTCTAACCTGTTGCTT (site AAGCCCTCTAA)”, “AAGGCCTCTTGGGTTCTAACCTGTTGCTT (site AAGGCCTCTAA)” is higher in “recombinant barcode read abundance (log10)” value: 0.156 for the first, 2.74 for the second.

Compared with “AAGGCCTCTTGGGTTCTAACCTGTTGCTT (site AAGTCCTCTAA)”, “AAGGGCCCTTGGGTTCTAACCTGTTGCCT (site AAGGGCCCTAG)” is higher in “recombinant barcode read abundance (log10)” value: 0.058 for the first, 2.1 for the second.

Compared with “AAGGGCCCTTGGGTTCTAACCTGTTGCCT (site CAGGGCCCTAG)”, “AAGGGCCCTTGGGTTCTAACCTGTTGCCT (site GAGGGCCCTAG)” is lower in “recombinant barcode read abundance (log10)” value: 0.339 for the first, 0.122 for the second.

Going from “AAGGGCCCTTGGGTTCTAACCTGTTGCCT (site TAGGGCCCTAG)” to “AAGGGCGCTTGGGTTCTAACCTGTTGCCT (site AAGGACGCTAG)”, the “recombinant barcode read abundance (log10)” value falls from 2.24 to 0.618.

First: AAGGGCGCTTGGGTTCTAACCTGTTGCCT (site AAGGCCGCTAG)
Second: AAGGGCGCTTGGGTTCTAACCTGTTGCCT (site AAGGGCGCTAG)
The “recombinant barcode read abundance (log10)” value of the first is lower: 0.238 for the first, 1.49 for the second.

Compared with “AAGGGCGCTTGGGTTCTAACCTGTTGCCT (site AAGGTCGCTAG)”, “AAGGGGCCTTGGGTTCTAACCTGTTGCCT (site AAGGGGCCTAG)” is higher in “recombinant barcode read abundance (log10)” value: 0.261 for the first, 1.8 for the second.

First: AAGGGGCCTTGGGTTCTAACCTGTTGCCT (site CGATCTACTCT)
Second: AAGGGGTCTTGGGTTCTAACCTGTTGCTT (site AAGGGGTCTAA)
The “recombinant barcode read abundance (log10)” value of the first is lower: 0.271 for the first, 3.02 for the second.

First: AAGGGGTCTTGGGTTCTAACCTGTTGCTT (site ATGGGGTCTAA)
Second: AAGGTCGCTTGGGTTCTAACCTGTTGCCT (site AAGGACGCTAG)
The “recombinant barcode read abundance (log10)” value of the first is higher: 0.898 for the first, 0.33 for the second.

First: AAGGTCGCTTGGGTTCTAACCTGTTGCCT (site AAGGCCGCTAG)
Second: AAGGTCGCTTGGGTTCTAACCTGTTGCCT (site AAGGGCGCTAG)
The “recombinant barcode read abundance (log10)” value of the first is higher: 1.14 for the first, 0.347 for the second.

First: AAGGTCGCTTGGGTTCTAACCTGTTGCCT (site AAGGTCGCTAG)
Second: AAGTATCCTTGGGTTCTAACCTGTTGCGG (site AAGTATCCTCC)
The “recombinant barcode read abundance (log10)” value of the first is higher: 2.45 for the first, 2.02 for the second.

First: AAGTATCCTTGGGTTCTAACCTGTTGCGG (site AGGGATCCTCC)
Second: AAGTATTCTTGGGTTCTAACCTGTTGCGT (site AAGTATTCTAC)
The “recombinant barcode read abundance (log10)” value of the first is lower: 0.349 for the first, 2.23 for the second.

Going from “AAGTATTCTTGGGTTCTAACCTGTTGCGT (site TAGTCTTCTAC)” to “AAGTCCTCTTGGGTTCTAACCTGTTGCTG (site AAGTCCTCTCA)”, the “recombinant barcode read abundance (log10)” value rises from 0.022 to 1.43.

Compared with “AAGTCCTCTTGGGTTCTAACCTGTTGCTG (site CTAAGGCCTAT)”, “AAGTCCTCTTGGGTTCTAACCTGTTGCTT (site AAGACCTCTAA)” is lower in “recombinant barcode read abundance (log10)” value: 0.442 for the first, 0.0682 for the second.

First: AAGTCCTCTTGGGTTCTAACCTGTTGCTT (site AAGCCCTCTAA)
Second: AAGTCCTCTTGGGTTCTAACCTGTTGCTT (site AAGGCCTCTAA)
The “recombinant barcode read abundance (log10)” value of the first is higher: 0.682 for the first, 0.153 for the second.

Compared with “AAGTCCTCTTGGGTTCTAACCTGTTGCTT (site AAGTCCTCTAA)”, “AAGTCGACTTGGGTTCTAACCTGTTGCCT (site AAGTCGACTAG)” is lower in “recombinant barcode read abundance (log10)” value: 1.48 for the first, 0.76 for the second.

Compared with “AAGTCGACTTGGGTTCTAACCTGTTGCCT (site AAGTGGACTAG)”, “AAGTGAGCTTGGGTTCTAACCTGTTGCCA (site AAGTGAGCTTG)” is higher in “recombinant barcode read abundance (log10)” value: 0.0428 for the first, 0.408 for the second.

“AAGTGAGCTTGGGTTCTAACCTGTTGCCA (site CTCCTCTCTAT)” and “AAGTTTACTTGGGTTCTAACCTGTTGCCT (site AAGTTTACTAA)” are within 0.2 log units of each other in “recombinant barcode read abundance (log10)” value: 0.0964 for the first, 0.0435 for the second.

Going from “AAGTTTACTTGGGTTCTAACCTGTTGCCT (site AAGTTTACTAG)” to “AATAAGACTTGGGTTCTAACCTGTTGCCA (site AATAAGACTTG)”, the “recombinant barcode read abundance (log10)” value rises from 0.0875 to 0.65.

Going from “AATAAGACTTGGGTTCTAACCTGTTGCCA (site AATAGGACTTA)” to “AATAAGTCTTGGGTTCTAACCTGTTGCAT (site AATAAGTCTAT)”, the “recombinant barcode read abundance (log10)” value rises from 0.134 to 0.385.

Going from “AATAAGTCTTGGGTTCTAACCTGTTGCAT (site CTCGCTCCTCA)” to “AATAGGCCTTGGGTTCTAACCTGTTGCGT (site AATAGGCCTAC)”, the “recombinant barcode read abundance (log10)” value rises from 0.0524 to 1.6.

“AATAGGCCTTGGGTTCTAACCTGTTGCGT (site AATCGGCCTAC)” and “AATAGGCCTTGGGTTCTAACCTGTTGCGT (site AATGGGCCTAC)” are within 0.2 log units of each other in “recombinant barcode read abundance (log10)” value: 0.163 for the first, 0.23 for the second.

“AATAGGCCTTGGGTTCTAACCTGTTGCGT (site AATTGGCCTAC)” and “AATCGCACTTGGGTTCTAACCTGTTGCCT (site AATACCACTAG)” are within 0.2 log units of each other in “recombinant barcode read abundance (log10)” value: 0.0726 for the first, 0 for the second.

“AATCGCACTTGGGTTCTAACCTGTTGCCT (site AATCGCACTAG)” and “AATGCTCCTTGGGTTCTAACCTGTTGCAT (site AATGCTCCTAA)” are within 0.2 log units of each other in “recombinant barcode read abundance (log10)” value: 0.216 for the first, 0.0259 for the second.

Going from “AATGCTCCTTGGGTTCTAACCTGTTGCAT (site AATGCTCCTAC)” to “AATGCTCCTTGGGTTCTAACCTGTTGCAT (site AATGCTCCTAG)”, the “recombinant barcode read abundance (log10)” value falls from 0.532 to 0.248.

Going from “AATGCTCCTTGGGTTCTAACCTGTTGCAT (site AATGCTCCTAT)” to “AATGCTCCTTGGGTTCTAACCTGTTGCCT (site AATGCTCCTAA)”, the “recombinant barcode read abundance (log10)” value falls from 0.533 to 0.0483.

First: AATGCTCCTTGGGTTCTAACCTGTTGCCT (site AATGCTCCTAC)
Second: AATGCTCCTTGGGTTCTAACCTGTTGCCT (site AATGCTCCTAG)
The “recombinant barcode read abundance (log10)” value of the first is lower: 0.158 for the first, 0.561 for the second.

First: AATGCTCCTTGGGTTCTAACCTGTTGCCT (site AATGCTCCTAT)
Second: AATGGGCCTTGGGTTCTAACCTGTTGCGT (site AATAGGCCTAC)
The “recombinant barcode read abundance (log10)” value of the first is lower: 0.0129 for the first, 1.71 for the second.

First: AATGGGCCTTGGGTTCTAACCTGTTGCGT (site AATCGGCCTAC)
Second: AATGGGCCTTGGGTTCTAACCTGTTGCGT (site AATGGGCCTAC)
The “recombinant barcode read abundance (log10)” value of the first is lower: 0.048 for the first, 2.4 for the second.

First: AATGGGCCTTGGGTTCTAACCTGTTGCGT (site AATTGGCCTAC)
Second: AATGGGGCTTGGGTTCTAACCTGTTGCAG (site AATGGGGCTCT)
The “recombinant barcode read abundance (log10)” value of the first is lower: 0.765 for the first, 2.51 for the second.

Compared with “AATGGGGCTTGGGTTCTAACCTGTTGCAG (site CGGCCACCTAA)”, “AATGGGTCTTGGGTTCTAACCTGTTGCTT (site AATGGGTCTAA)” is higher in “recombinant barcode read abundance (log10)” value: 0.185 for the first, 1.71 for the second.

Going from “AATGGGTCTTGGGTTCTAACCTGTTGCTT (site CCACTAGCTCT)” to “AATTGGCCTTGGGTTCTAACCTGTTGCGT (site AATAGGCCTAC)”, the “recombinant barcode read abundance (log10)” value rises from 0.0323 to 0.425.

Compared with “AATTGGCCTTGGGTTCTAACCTGTTGCGT (site AATCGGCCTAC)”, “AATTGGCCTTGGGTTCTAACCTGTTGCGT (site AATGGGCCTAC)” is lower in “recombinant barcode read abundance (log10)” value: 0.976 for the first, 0.376 for the second.

Going from “AATTGGCCTTGGGTTCTAACCTGTTGCGT (site AATTGGCCTAC)” to “ACAAACCCTTGGGTTCTAACCTGTTGCCT (site ACAAAACCTAG)”, the “recombinant barcode read abundance (log10)” value falls from 0.673 to 0.214.

In the case of “ACAAACCCTTGGGTTCTAACCTGTTGCCT (site ACAAACCCTAG)”, the “recombinant barcode read abundance (log10)” value is reported as 0.812.
